Experimental data published in PubChem BioAssay (NCI).
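The compound was tested at five concentrations on cells cultured in 96-well plates, with a 48-hour exposure period. TGI marks complete inhibition of growth.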

Assays:
Experiment in all cases: NCI-60 cell line screen, 48 h
[1] = test system: 786-0 renal
[2] = test system: A498 renal
[3] = test system: A549 NSCLC
[4] = test system: ACHN renal
[5] = test system: BT-549 breast
[6] = test system: CAKI-1 renal
[7] = test system: CCRF-CEM leukemia
[8] = test system: COLO 205 colon
[9] = test system: DU-145 prostate
[10] = test system: EKVX NSCLC
[11] = test system: HCC-2998 colon
[12] = test system: HCT-116 colon
[13] = test system: HCT-15 colon
[14] = test system: HL-60(TB) leukemia
[15] = test system: HOP-62 NSCLC
[16] = test system: HOP-92 NSCLC
[17] = test system: HS 578T breast
[18] = test system: HT29 colon
[19] = test system: IGROV1 ovarian
[20] = test system: K-562 leukemia
[21] = test system: KM12 colon
[22] = test system: M14 melanoma
[23] = test system: MALME-3M melanoma
[24] = test system: MCF7 breast
[25] = test system: MDA-MB-231 breast
[26] = test system: MDA-MB-435
[27] = test system: MDA-N
[28] = test system: MOLT-4 leukemia
[29] = test system: NCI-H226 lung
[30] = test system: NCI-H23 lung
[31] = test system: NCI-H460 lung
[32] = test system: NCI-H522 lung
[33] = test system: NCI/ADR-RES ovarian
[34] = test system: OVCAR-3 ovarian
[35] = test system: OVCAR-4 ovarian
[36] = test system: OVCAR-5 ovarian
[37] = test system: OVCAR-8 ovarian
[38] = test system: PC-3 prostate
[39] = test system: RPMI-8226 leukemia
[40] = test system: RXF 393 renal
[41] = test system: SF-268 CNS
[42] = test system: SF-295 CNS
[43] = test system: SF-539 CNS
[44] = test system: SK-MEL-2 melanoma
[45] = test system: SK-MEL-28 melanoma
[46] = test system: SK-MEL-5 melanoma
[47] = test system: SK-OV-3 ovarian
[48] = test system: SN12C renal
[49] = test system: SNB-19 CNS
[50] = test system: SR leukemia
[51] = test system: T-47D breast
[52] = test system: TK-10 renal
[53] = test system: U251 CNS
[54] = test system: UACC-257 melanoma
[55] = test system: UACC-62 melanoma
[56] = test system: UO-31 renal
[57] = test system: LOX IMVI melanoma
[58] = test system: SNB-75 CNS
[59] = test system: SW-620 colon

With CO/C=C(/C(=O)OC)[C@@H]1C[C@@H]1c1ccc2ccccc2c1 the TGI [1] was > 100 µM, the TGI [2] was > 100 µM and the TGI [3] was 57.4 µM. For the same molecule, the TGI [4] was 78.7 µM, the TGI [5] was 50.5 µM and the TGI [6] was 66 µM. For the same molecule, the TGI [7] was 63.1 µM, the TGI [8] was 32.9 µM and the TGI [9] was > 100 µM. The TGI [10] was 60 µM, the TGI [11] was 50.5 µM and the TGI [12] was 44.1 µM. The TGI [13] was 49.9 µM, the TGI [14] was 49.3 µM and the TGI [15] was > 100 µM. The TGI [16] was 72.9 µM, the TGI [17] was > 100 µM and the TGI [18] was 48.6 µM. The TGI [19] was 70.7 µM, the TGI [20] was > 100 µM and the TGI [21] was 54.6 µM. For the same molecule, the TGI [22] was 71.9 µM, the TGI [23] was 50.6 µM and the TGI [24] was > 100 µM. For the same molecule, the TGI [25] was > 100 µM, the TGI [26] was 35.1 µM and the TGI [27] was 65.2 µM. The TGI [28] was 65.4 µM, the TGI [29] was > 100 µM and the TGI [30] was > 100 µM. For the same molecule, the TGI [31] was > 100 µM, the TGI [32] was 28.5 µM and the TGI [33] was 65.3 µM. For the same molecule, the TGI [34] was 73.9 µM, the TGI [35] was 77.1 µM and the TGI [36] was > 100 µM. The TGI [37] was > 100 µM, the TGI [38] was > 100 µM and the TGI [39] was 41.9 µM. For the same molecule, the TGI [40] was > 100 µM, the TGI [41] was 99.2 µM and the TGI [42] was > 100 µM. For the same molecule, the TGI [43] was 44.2 µM, the TGI [44] was 35.1 µM and the TGI [45] was 81.4 µM. For the same molecule, the TGI [46] was 30.3 µM, the TGI [47] was 59.4 µM and the TGI [48] was > 100 µM. For the same molecule, the TGI [49] was > 100 µM, the TGI [50] was 44.7 µM and the TGI [51] was 78.5 µM. The TGI [52] was > 100 µM, the TGI [53] was > 100 µM and the TGI [54] was 71.9 µM. For the same molecule, the TGI [55] was > 100 µM and the TGI [56] was > 100 µM.

In the case of CCOC(=O)c1c(N)sc2c1CC(C)CC2 (configuration not stated), the TGI [1] is reported as 55.3 µM, the TGI [3] is reported as > 100 µM and the TGI [4] is reported as > 100 µM. For the same molecule, the TGI [5] was > 100 µM, the TGI [6] was > 100 µM and the TGI [8] was 89.5 µM. For the same molecule, the TGI [9] was > 100 µM, the TGI [10] was > 100 µM and the TGI [11] was 45.6 µM. The TGI [12] was > 100 µM, the TGI [13] was > 100 µM and the TGI [14] was 23.2 µM. The TGI [15] was > 100 µM, the TGI [16] was 74.2 µM and the TGI [17] was > 100 µM. The TGI [18] was 50.3 µM, the TGI [19] was > 100 µM and the TGI [20] was > 100 µM. For the same molecule, the TGI [21] was > 100 µM, the TGI [57] was > 100 µM and the TGI [22] was > 100 µM. For the same molecule, the TGI [23] was > 100 µM, the TGI [24] was > 100 µM and the TGI [25] was > 100 µM. The TGI [26] was > 100 µM, the TGI [27] was > 100 µM and the TGI [28] was > 100 µM. The TGI [29] was 64 µM, the TGI [30] was > 100 µM and the TGI [31] was > 100 µM. For the same molecule, the TGI [32] was 40.5 µM, the TGI [33] was > 100 µM and the TGI [34] was > 100 µM. For the same molecule, the TGI [35] was > 100 µM, the TGI [36] was > 100 µM and the TGI [37] was > 100 µM. The TGI [38] was > 100 µM, the TGI [39] was 75 µM and the TGI [40] was 44.9 µM. For the same molecule, the TGI [41] was > 100 µM, the TGI [42] was > 100 µM and the TGI [44] was > 100 µM. The TGI [45] was > 100 µM, the TGI [46] was 37.7 µM and the TGI [47] was > 100 µM. The TGI [48] was > 100 µM, the TGI [49] was > 100 µM and the TGI [58] was 98.1 µM. For the same molecule, the TGI [50] was 86.8 µM, the TGI [59] was > 100 µM and the TGI [51] was > 100 µM. For the same molecule, the TGI [52] was > 100 µM, the TGI [53] was > 100 µM and the TGI [54] was 97.3 µM. For the same molecule, the TGI [55] was > 100 µM and the TGI [56] was > 100 µM.
